The values below come from ChEMBL document CHEMBL1135772, “Conformationally constrained nicotines: polycyclic, bridged, and spiro-annulated analogues as novel ligands for the nicotinic acetylcholine receptor” (J Med Chem, 2002).

pKi: −log10 of the molar value.

Usually pKi stands for −log10 of the Ki, conventionally taken in molar units. Lower therefore signals a high Ki.

Sequence of Neuronal acetylcholine receptor; alpha4/beta2 (P09483 whole entry): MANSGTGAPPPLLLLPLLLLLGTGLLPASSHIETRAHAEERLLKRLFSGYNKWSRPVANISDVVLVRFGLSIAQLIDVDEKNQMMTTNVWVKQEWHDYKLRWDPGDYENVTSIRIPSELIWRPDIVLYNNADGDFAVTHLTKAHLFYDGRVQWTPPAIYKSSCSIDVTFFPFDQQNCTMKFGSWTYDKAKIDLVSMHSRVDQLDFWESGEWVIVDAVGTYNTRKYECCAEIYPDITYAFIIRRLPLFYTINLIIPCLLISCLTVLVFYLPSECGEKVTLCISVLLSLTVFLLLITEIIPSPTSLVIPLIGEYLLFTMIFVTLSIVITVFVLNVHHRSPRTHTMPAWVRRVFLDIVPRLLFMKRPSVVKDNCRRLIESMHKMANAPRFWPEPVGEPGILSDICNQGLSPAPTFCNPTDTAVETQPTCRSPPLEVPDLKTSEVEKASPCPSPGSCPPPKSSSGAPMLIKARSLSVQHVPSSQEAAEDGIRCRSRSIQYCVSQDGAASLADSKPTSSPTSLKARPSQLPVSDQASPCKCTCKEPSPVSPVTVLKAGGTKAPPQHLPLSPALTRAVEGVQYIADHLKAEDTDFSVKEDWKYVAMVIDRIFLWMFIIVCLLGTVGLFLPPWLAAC
Sequence of Neuronal acetylcholine receptor; alpha4/beta2 (P12390 whole entry): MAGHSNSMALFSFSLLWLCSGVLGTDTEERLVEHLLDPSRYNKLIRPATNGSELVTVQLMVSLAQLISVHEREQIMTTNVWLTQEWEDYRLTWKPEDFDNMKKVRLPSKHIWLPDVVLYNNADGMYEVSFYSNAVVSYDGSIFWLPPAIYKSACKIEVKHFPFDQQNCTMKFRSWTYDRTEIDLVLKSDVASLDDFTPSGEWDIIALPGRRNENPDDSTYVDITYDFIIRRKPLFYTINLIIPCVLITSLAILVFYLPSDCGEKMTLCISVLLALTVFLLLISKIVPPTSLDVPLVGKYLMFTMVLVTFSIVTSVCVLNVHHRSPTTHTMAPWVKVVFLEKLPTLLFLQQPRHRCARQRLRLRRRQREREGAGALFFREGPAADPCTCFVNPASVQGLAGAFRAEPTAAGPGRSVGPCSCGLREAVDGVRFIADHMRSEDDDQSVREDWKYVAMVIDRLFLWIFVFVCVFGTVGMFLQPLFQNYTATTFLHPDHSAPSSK

The assay addresses Neuronal acetylcholine receptor; alpha4/beta2 (Rattus norvegicus, UniProt P09483+P12390). The assay can be described thus: Displacement of [3H]cytisine from Nicotinic acetylcholine receptor alpha4-beta2 in rat forebrain. (Displacement assays read how much labelled ligand stays bound in the presence of the test substance.)
Take `c1cc2c(cn1)[C@]1(CCCN1)CC2`: the pKi is 6.27.
In the case of `CN1CCC[C@@]12CCc1ccncc12`, the negative logarithm of the Ki (pKi) was 6.83.
For the compound `CN1CCC[C@]12CCc1ccncc12`, the pKi is 8.32.
For `c1cc2c(cn1)[C@@]1(CCCN1)CC2` the value was 7.27; for `c1cc2c(cn1)[C@H]1N3CCC1(CC3)C2`, 6.02.
The same measure for `c1cncc(C2C3CCN2CC3)c1` (single isomer, unassigned; (-)): 8.72; for `c1cncc(C2C3CCN2CC3)c1` (stereo in doubt; 3 (+)): 8.63.
In turn, `c1cc2c(cn1)C1N3CCCC1(CC3)C2` (stereo in doubt; (+)4b) gave a pKi of 6.50.
For `c1cc2c(cn1)C1N3CCCC1(CC3)C2` (stereo in doubt; (-)4b) the value was 5.98.
